Assays:
SfMCT [1] = molecular target: T1, SfMCT (Syntrophobacter fumaroxidans, UniProt A0LNN5); test: Uptake of [14C]L-lactate and other radiolabeled monocarboxylates into SfMCT expressing E. coli JA202; format: cell-based
T1 construct: expressed in transfected cells; host or cells: E. coli JA202 (MC4100 glcA::cat lldP::kan), plasmid pEXT20-SfMCT-3C-10His
T1 sequence (A0LNN5 1-412): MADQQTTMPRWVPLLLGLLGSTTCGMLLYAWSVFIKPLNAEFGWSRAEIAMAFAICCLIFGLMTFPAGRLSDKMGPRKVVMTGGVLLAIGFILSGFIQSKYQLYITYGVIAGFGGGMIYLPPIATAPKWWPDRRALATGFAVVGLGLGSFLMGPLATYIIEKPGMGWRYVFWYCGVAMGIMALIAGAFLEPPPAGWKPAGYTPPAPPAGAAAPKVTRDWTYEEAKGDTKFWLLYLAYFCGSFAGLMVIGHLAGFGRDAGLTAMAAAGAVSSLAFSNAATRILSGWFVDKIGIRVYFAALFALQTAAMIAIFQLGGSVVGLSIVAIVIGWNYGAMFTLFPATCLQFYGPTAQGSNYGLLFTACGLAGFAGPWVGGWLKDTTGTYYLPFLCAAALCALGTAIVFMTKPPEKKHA
Description: (§1) The cultures were grown at 37 °C and 180 r.p.m. in an incubator shaker (Multitron, Infors HT). Protein expression was induced at OD600 ~0.5 by addition of IPTG to a final concentration of 0.25 mM. After 4 h, bacteria were pelleted (5,200 × g, 10 min, room temperature) and resuspended in uptake buffer (20 mM Bis-Tris propane-HCl (pH 6.7), 250 mM KCl) to a bacteria density of OD600 12. […] Furthermore, [3-3 H] propionic acid sodium salt ([^3H]propionate, American Radiolabeled Chemicals, specific activity 30 Ci/mmol), n-[2,3-3 H] butyric acid sodium salt ([^3H]butyrate, American Radiolabeled Chemicals, specific activity 120 Ci/mmol), and [1–14 C] pyruvic acid sodium salt ([^14C]pyruvate, specific activity 0.055 Ci/mmol American Radiolabeled Chemicals) were also used for transport experiments. […] Uptake experiments were performed in 2 ml reaction tubes (Eppendorf) at 30 °C under agitation (1,000 r.p.m., Thermomixer compact, Eppendorf). […] Bacteria were immediately pelleted by centrifugation (21,000 × g, 4 min, room temperature) and washed two times with 900 μl stop buffer. Finally, bacteria were lyzed in 50 μl 5% (w/v) sodium dodecylsulfate and transferred into a white 96-well plate (Optiplate, PerkinElmer). 150 µl of scintillation cocktail (MicroScint 40, PerkinElmer) were added before measuring each reaction for 2 min with a scintillation counter (TopCount NXT, PerkinElmer). For data analysis, the signal of the empty vector was subtracted from the transporter signal. […] Cpm values of each experiment were normalized with respect to the determined upper plateau value, i.e., the fitted upper plateau value corresponds to 100%. The arithmetic average of three independent experiments was calculated. Three independent and normalized pH-dependence curves were then averaged. For data analysis Prism6 (GraphPad Software) was used. […] Equal amounts of bacteria expressing SfMCT variants were loaded on 14% SDS/polyacrylamide gels. His-tagged transporters were detected using an anti-His5 (Qiagen, catalogue number 34660, primary antibody) at a dilution of 1:3,000 and a goat anti-mouse IgG (H + L) HRP conjugate antibody (Biorad, catalogue number 172-1011, secondary antibody) at a dilution of 1:2,500.

SfMCT [2] = molecular target: T1, SfMCT; format: cell-based; conditions: competitor 1 mM
Description: as §1

SfMCT [3] = molecular target: T1, SfMCT; test: Micro pH electrode-based transport assay, SfMCT-expressing E. coli JA202; format: cell-based; conditions: 10 mM compound (pH 6.5) added to bacterial suspension pH 6.7
Description: (§2) A measuring set up as previously reported[18] was used for micro pH electrode-based transport measurements. SfMCT was expressed in E. coli JA202 (MC4100 glcA::cat lldP::kan)[15] as described for uptake experiments. After expression, bacteria were pelleted (5,200 × g, 10 min, room temperature), washed twice in assay solution (250 mM KCl, 1 mM MgSO4, 2 mM CaCl2; 5,200 × g, 10 min, room temperature) and finally resuspended in assay solution to a bacterial density of OD600 15. Compounds that were assayed for proton-coupled transport were dissolved in assay solution and the pH was adjusted to 6.5. 800 µl of bacteria suspension were transferred into a 2 ml reaction tube (Eppendorf) and the pH value of the bacterial suspension (extracellular medium) was measured using a micro pH electrode with integrated temperature sensor (InLab Micro Pro, Mettler Toledo) under constant stirring. The pH of the bacterial suspension was adjusted to pH 6.7 using potassium hydroxide and hydrochloric acid. The SevenCompact pH-meter (Mettler Toledo), together with LabX direct pH 2.3 software (Mettler Toledo), were used for automatic recording in 15 s intervals. Measurements were initiated by adding 10 mM of the corresponding compound to the bacterial suspension. All experiments were performed at 24 °C.

[4] = system: vector-transformed E. coli JA202; test: Micro pH electrode-based transport assay, vector-transformed E. coli JA202; format: cell-based; conditions: 10 mM compound (pH 6.5) added to vector-transformed bacterial suspension pH 6.7
Description: as §2

SfMCT [5] = molecular target: T1, SfMCT; test: Uptake of [14C]L-lactate and other radiolabeled monocarboxylates into SfMCT expressing E. coli JA202; format: cell-based; conditions: for Net uptake of [14C]L-lactate through SfMCT (cpm): SfMCT minus vector
MCT2 (SLC16A7) = conditions: MCT2, L-lactate; cited from earlier work
MCT1 (SLC16A1) = conditions: MCT1, L-lactate; cited from earlier work
MCT3 (SLC16A8) = conditions: MCT3, L-lactate; cited from earlier work

## C[C@H](O)C(=O)O [L-lactate]
SfMCT [1]; 0.1 µCi radiolabeled monocarboxylate, SfMCT-overexpressing bacteria
  Uptake of radioligand by SfMCT (cpm): 10963 cpm
SfMCT [1]; Time 30 min
  Uptake of [14C]L-lactate by SfMCT (cpm): 8927.33 cpm
SfMCT [1]; Time 30 min, SfMCT minus vector
  Net uptake of [14C]L-lactate through SfMCT (cpm): 7196.33 cpm
SfMCT [1]; [L-lactate] 500 µM
  Uptake of [14C]L-lactate: 253.382 pmol
SfMCT [1]; [L-lactate] 750 µM
  Uptake of [14C]L-lactate: 287.925 pmol
SfMCT [2]
  competition with [14C]L-lactate uptake (in words): strongest competition
SfMCT [3]
  proton-coupled transport, change of extracellular pH (in words): immediate pH increase
[4]
  proton-coupled transport, change of extracellular pH (in words): significantly slower and lower pH increase
SfMCT [5]; Time 5 min
  Uptake of [14C]L-lactate by SfMCT (cpm): 1353.33 cpm
  Net uptake of [14C]L-lactate through SfMCT (cpm): 969 cpm
SfMCT [5]; Time 10 min
  Uptake of [14C]L-lactate by SfMCT (cpm): 2978.67 cpm
  Net uptake of [14C]L-lactate through SfMCT (cpm): 2373.33 cpm
SfMCT [5]; Time 20 min
  Uptake of [14C]L-lactate by SfMCT (cpm): 6015 cpm
  Net uptake of [14C]L-lactate through SfMCT (cpm): 4812 cpm
SfMCT [5]; Time 40 min
  Uptake of [14C]L-lactate by SfMCT (cpm): 11074.3 cpm
  Net uptake of [14C]L-lactate through SfMCT (cpm): 8600.33 cpm
SfMCT [5]; Time 50 min
  Uptake of [14C]L-lactate by SfMCT (cpm): 12325 cpm
  Net uptake of [14C]L-lactate through SfMCT (cpm): 9196.33 cpm
SfMCT [5]; Time 60 min
  Uptake of [14C]L-lactate by SfMCT (cpm): 13920.3 cpm
  Net uptake of [14C]L-lactate through SfMCT (cpm): 9981.67 cpm
SfMCT [5]; Time 75 min
  Uptake of [14C]L-lactate by SfMCT (cpm): 16014.3 cpm
  Net uptake of [14C]L-lactate through SfMCT (cpm): 10856.3 cpm
SfMCT [5]; Time 90 min
  Uptake of [14C]L-lactate by SfMCT (cpm): 17840 cpm
  Net uptake of [14C]L-lactate through SfMCT (cpm): 10528.3 cpm
SfMCT [5]; [L-lactate] 10 µM
  Uptake of [14C]L-lactate: 8.303 pmol
SfMCT [5]; [L-lactate] 50 µM
  Uptake of [14C]L-lactate: 59.1431 pmol
SfMCT [5]; [L-lactate] 100 µM
  Uptake of [14C]L-lactate: 109.881 pmol
SfMCT [5]; [L-lactate] 175 µM
  Uptake of [14C]L-lactate: 163.284 pmol
SfMCT [5]; [L-lactate] 250 µM
  Uptake of [14C]L-lactate: 201.312 pmol
SfMCT [5]; [L-lactate] 625 µM
  Uptake of [14C]L-lactate: 266.195 pmol
MCT2 (SLC16A7)
  Km: ~0.7 mM
MCT1 (SLC16A1)
  Km: 3 to 5 mM
MCT3 (SLC16A8)
  Km: ~6 mM

From article PMC6573034 (Nature Communications, 2019)
